In one assay the target is T1, human FAAH (Homo sapiens, UniProt O00519).
T1 construct: made in house; host or cells: E. coli
T1 sequence (O00519 1-579): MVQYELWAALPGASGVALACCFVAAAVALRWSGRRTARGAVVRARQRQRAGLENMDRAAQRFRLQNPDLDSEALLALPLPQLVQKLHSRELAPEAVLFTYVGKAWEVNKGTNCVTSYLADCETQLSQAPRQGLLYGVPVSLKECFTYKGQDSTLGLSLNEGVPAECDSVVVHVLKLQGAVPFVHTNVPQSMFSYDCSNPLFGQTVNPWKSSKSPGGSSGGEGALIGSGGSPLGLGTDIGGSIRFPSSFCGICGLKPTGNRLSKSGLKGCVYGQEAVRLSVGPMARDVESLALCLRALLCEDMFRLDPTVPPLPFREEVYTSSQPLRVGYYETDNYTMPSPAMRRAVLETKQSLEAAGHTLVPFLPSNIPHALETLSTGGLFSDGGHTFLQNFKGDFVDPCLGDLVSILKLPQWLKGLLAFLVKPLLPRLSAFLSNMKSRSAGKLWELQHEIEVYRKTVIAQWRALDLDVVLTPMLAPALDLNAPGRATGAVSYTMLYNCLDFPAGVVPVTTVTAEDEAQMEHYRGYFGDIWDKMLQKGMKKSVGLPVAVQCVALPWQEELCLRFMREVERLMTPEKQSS
In words: FAAH assay, human FAAH enzyme inactivation (kinact/Ki). In kind it is biochemical. The settings on record: oleamide 50 μM, 30° C.; for kinact/KI: pH 7.4, in vitro, read-out: hFAAH kinact/Ki; for hFAAH kinact/Ki: in vitro, pH 7.4. How it is done: (§1) The FAAH assay was carried out in 384-well clear polystyrene plates (Evergreen Scientific) in a total volume of 50 μl per well in a manner similar to that described by Mileni et al., Proc. Nat. Acad. Sci. 2008, 105, 12820-12824. All percents are by volume. Serial dilutions of compound were initially prepared in 100% DMSO, and then diluted two-fold into HPLC-grade H2O to give 50% DMSO. To each well, was placed the reaction mixture (40 μl) containing 1-4 nM FAAH, 50 mM NaPi, pH 7.4, 3 mM α-ketoglutarate, 0.15 mM NADH, 7.5 U/ml glutamate dehydrogenase, 2 mM ADP, 1 mM EDTA, and 0.1% Triton X-100 (The concentration shown for each component is the final concentration in the assay). To this mixture, was added 5 μl of a compound of Examples 1 to 101 at various concentrations in 50% DMSO (or 5 μl 50% DMSO for controls). This was immediately followed by the addition of 5 μl oleamide (500 μM) dissolved in 75% EtOH/25% DMSO and the reaction mixture was mixed for 1.5 min. The final concentrations of DMSO and EtOH in the assay were each 7.5%. The reactions were incubated at 30° C. and the absorbance at 340 nm was collected over a period of 90 min with readings taken in 30-second intervals using SpectraMax Plus^384 Microplate Spectrophotometer (Molecular Devices, Sunnyvale, Calif.). The human FAAH and rat FAAH used in the assay was prepared as described in the patent application WO 2006/067613 using wild-type E. coli cells transformed in St. Louis, Mo., U.S.A. The purity of the enzyme was greater than 98% based on an analysis by SDS-polyacrylamide gel electrophoresis followed by Coomassie Blue staining.
(§2) Reaction progress curves were corrected for the non-enzymatic oxidation of NADH by subtraction of absorbancies at each time point obtained from control reactions containing no FAAH enzyme. The loss of enzyme activity as a function of time is well-described by the following mathematical equation (1) for a mono-exponential decay: […]
(§3) where At represents the absorbance at time t, A0 represents the absorbance at time zero, and C represents a constant. Observed rates of enzyme inactivation (kobs) were determined from the non-linear reaction progress curves by fitting the corrected absorbancies to an equation for a mono-exponential decay using the third-party Microsoft Excel plug-in, XLfit (IDBS Limited). Secondary plots of kobs vs. inhibitor concentration were prepared from kobs values obtained from progress curves. Second-order rates for enzyme inactivation, expressed as kinact/Ki (M^−1 s^−1), were calculated from the slopes from linear regression analysis of the secondary plot of kobs vs. inhibitor concentration as defined in following equation (2), where [I]<<Ki:
(§4) The concentration of substrate in the assay was equal to the Km for oleamide of 50 μM. Therefore, reported kinact/Ki values are obtained by multiplying resulting slopes by a factor of two (i.e. slope=kinact/(Ki*2)).
(§5) Table 1, below, lists human FAAH (hFAAH) and rat FAAH (rFAAH) enzyme inhibition values for Examples 1-101 as a ratio of kinact/Ki (M^−1 s^−1).

A further assay addresses T2, rat FAAH (Rattus norvegicus, UniProt P97612).
T2 construct: made in house; host or cells: E. coli
T2 sequence (P97612 1-579): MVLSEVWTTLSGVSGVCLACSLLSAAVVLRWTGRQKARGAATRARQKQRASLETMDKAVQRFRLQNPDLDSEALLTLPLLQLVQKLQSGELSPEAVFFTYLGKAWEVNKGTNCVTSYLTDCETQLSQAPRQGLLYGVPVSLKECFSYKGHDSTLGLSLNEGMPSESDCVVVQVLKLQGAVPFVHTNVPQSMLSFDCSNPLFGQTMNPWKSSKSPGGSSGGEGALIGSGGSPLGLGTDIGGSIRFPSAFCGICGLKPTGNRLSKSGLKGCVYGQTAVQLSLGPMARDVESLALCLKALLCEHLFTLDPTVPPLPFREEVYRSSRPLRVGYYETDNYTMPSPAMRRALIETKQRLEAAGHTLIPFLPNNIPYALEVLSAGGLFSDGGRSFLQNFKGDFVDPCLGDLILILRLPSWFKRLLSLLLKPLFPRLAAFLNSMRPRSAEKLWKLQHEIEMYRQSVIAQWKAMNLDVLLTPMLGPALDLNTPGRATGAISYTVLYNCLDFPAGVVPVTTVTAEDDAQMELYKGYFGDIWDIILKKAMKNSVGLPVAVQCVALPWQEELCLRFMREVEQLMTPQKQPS
In words: FAAH assay, rat FAAH enzyme inactivation (kinact/Ki). In kind it is biochemical. The settings on record: oleamide 50 μM, 30° C.; for kinact/KI: pH 7.4, in vitro, read-out: rFAAH kinact/Ki; for rFAAH kinact/Ki: in vitro, pH 7.4. How it is done: as §1, §2, §3, §4, §5

With `Cc1noc(NC(=O)N2CCC3(CC2)CC(c2cccc(-c4ccc(F)cc4)c2)CO3)c1C` (racemic) [Example 54, (3RS)-N-(3,4-dimethylisoxazol-5-yl)-3-(4′-fluorobiphenyl-3-yl)-1-oxa-8-azaspiro[4.5]decane-8-carboxamide], the kinact/KI at human FAAH came to 2040 M⁻¹ s⁻¹; at rat FAAH, 1110 M⁻¹ s⁻¹.
For `O=C(Nc1noc2ccccc12)N1CCC2(CC1)CC(c1cccc(Oc3ccc(Cl)cn3)c1)CO2` (racemic) [Example 101, (3RS)—N-1,2-benzisoxazol-3-yl-3-{3-[(5-chloropyridin-2-yl)oxy]phenyl}-1-oxa-8-azaspiro[4.5]decane-8-carboxamide], the figures for the kinact/KI at human FAAH and on rat FAAH were 1780 M⁻¹ s⁻¹ and 8330 M⁻¹ s⁻¹, respectively.
Taken in the same sequence, the figures for `Cc1noc(NC(=O)N2CCC3(CC2)C[C@H](c2cccc(-c4ccc(C(F)(F)F)cn4)c2)CO3)c1C` [Example 98, (3R)—N-(3,4-dimethylisoxazol-5-yl)-3-{3-[5-(trifluoromethyl)pyridin-2-yl]phenyl}-1-oxa-8-azaspiro[4.5]decane-8-carboxamide] were 2820 M⁻¹ s⁻¹ and 1630 M⁻¹ s⁻¹.
Taken in the same sequence, the figures for `Cc1noc(NC(=O)N2CCC3(CC2)CC(F)(c2cc(F)cc(Cl)c2)CO3)c1C` (racemic) [Example 100, (3RS)-3-(3-chloro-5-fluorophenyl)-N-(3,4-dimethylisoxazol-5-yl)-3-fluoro-1-oxa-8-azaspiro[4.5]decane-8-carboxamide] were 871 M⁻¹ s⁻¹ and 1120 M⁻¹ s⁻¹.
As to `Cc1noc(NC(=O)N2CCC3(CC2)CC(c2cc(F)cc(Cl)c2)CO3)c1C` (single isomer, unassigned) [Example 40, 3-(3-chloro-5-fluorophenyl)-N-(3,4-dimethylisoxazol-5-yl)-1-oxa-8-azaspiro[4.5]decane-8-carboxamide], the “hFAAH kinact/Ki” value at human FAAH was determined as 2470 M⁻¹ s⁻¹. Also, the “rFAAH kinact/Ki” value at rat FAAH is 3740 M⁻¹ s⁻¹.
Consider `Cc1noc(NC(=O)N2CCC3(CC2)CC(c2ccc(OCc4cccc(C(F)(F)F)n4)cc2)CO3)c1C` (racemic) [Example 29, (3RS)-N-(3,4-dimethylisoxazol-5-yl)-3-(4-{[6-(trifluoromethyl)pyridin-2-yl]methoxy}phenyl)-1-oxa-8-azaspiro[4.5]decane-8-carboxamide], for which the kinact/KI at human FAAH amounted to 2110 M⁻¹ s⁻¹; at rat FAAH, 3230 M⁻¹ s⁻¹.
The like results for `Cc1noc(NC(=O)N2CCC3(CC2)CC(c2ccc(F)c(Cl)c2)CO3)c1C` (racemic) [Example 28, (3RS)-3-(3-chloro-4-fluorophenyl)-N-(3,4-dimethylisoxazol-5-yl)-1-oxa-8-azaspiro[4.5]decane-8-carboxamide] were, in that order, 1580 M⁻¹ s⁻¹ and 3950 M⁻¹ s⁻¹.
The like results for `Cc1noc(NC(=O)N2CCC3(CC2)C[C@H](c2cccc(-c4ccc(OC(F)(F)F)cc4)c2)CO3)c1C` [Example 64, (3R)—N-(3,4-dimethylisoxazol-5-yl)-3-[4′-(trifluoromethoxy)biphenyl-3-yl]-1-oxa-8-azaspiro[4.5]decane-8-carboxamide] were, in that order, 1490 M⁻¹ s⁻¹ and 588 M⁻¹ s⁻¹.
The like results for `Cc1noc(NC(=O)N2CCC3(CC2)CC(c2cccc(C(F)(F)F)c2)CO3)c1C` (racemic) [Example 65, (3RS)—N-(3,4-dimethylisoxazol-5-yl)-3-[3-(trifluoromethyl)phenyl]-1-oxa-8-azaspiro[4.5]decane-8-carboxamide] were, in that order, 1100 M⁻¹ s⁻¹ and 2630 M⁻¹ s⁻¹.
`Cc1noc(NC(=O)N2CCC3(CC2)CC(c2ccc(OCc4ccccc4)c(Cl)c2)CO3)c1C` (racemic) [Example 20, (3RS)-3-[4-(benzyloxy)-3-chlorophenyl]-N-(3,4-dimethylisoxazol-5-yl)-1-oxa-8-azaspiro[4.5]decane-8-carboxamide]: the results for the kinact/KI at human FAAH and at rat FAAH were 3970 M⁻¹ s⁻¹ and 4390 M⁻¹ s⁻¹, respectively.
The like results for `Cn1nnnc1NC(=O)N1CCC2(CC1)CC(c1cccc(C(F)(F)F)c1)CO2` (racemic) [Example 92] were, in that order, 5240 M⁻¹ s⁻¹ and 3120 M⁻¹ s⁻¹.
The like results for `Cc1noc(NC(=O)N2CCC3(CC2)CC(c2ccc(Cl)c(F)c2)CO3)c1C` (racemic) [Example 26, (3RS)-3-(4-chloro-3-fluorophenyl)-N-(3,4-dimethylisoxazol-5-yl)-1-oxa-8-azaspiro[4.5]decane-8-carboxamide] were, in that order, 2140 M⁻¹ s⁻¹ and 2520 M⁻¹ s⁻¹.
Taken in the same sequence, the figures for `Cc1noc(NC(=O)N2CCC3(CC2)CC(c2ccc(Cl)c(Cl)c2)CO3)c1C` (racemic) [Example 15, (3RS)-3-(3,4-dichlorophenyl)-N-(3,4-dimethylisoxazol-5-yl)-1-oxa-8-azaspiro[4.5]decane-8-carboxamide] were 2430 M⁻¹ s⁻¹ and 4360 M⁻¹ s⁻¹.
Regarding `Cc1noc(NC(=O)N2CCC3(CC2)CC(c2ccc(Cl)c(Cl)c2)CO3)c1C` (single isomer, unassigned) [Example 38, 3-(3,4-dichlorophenyl)-N-(3,4-dimethylisoxazol-5-yl)-1-oxa-8-azaspiro[4.5]decane-8-carboxamide], the “hFAAH kinact/Ki” value on human FAAH worked out at 2050 M⁻¹ s⁻¹. For the same compound, the “rFAAH kinact/Ki” value on rat FAAH came to 2380 M⁻¹ s⁻¹.
Regarding `Cc1noc(NC(=O)N2CCC3(CC2)CC(c2noc(-c4ccc(OC(F)(F)F)cc4)n2)CO3)c1C` (racemic) [Example 71, (3RS)—N-(3,4-dimethylisoxazol-5-yl)-3-{5-[4-(trifluoromethoxy)phenyl]-1,2,4-oxadiazol-3-yl}-1-oxa-8-azaspiro[4.5]decane-8-carboxamide], the kinact/KI came to 2610 M⁻¹ s⁻¹ on human FAAH and 1020 M⁻¹ s⁻¹ on rat FAAH.
The like results for `Cc1noc(NC(=O)N2CCC3(CC2)CC(c2ccc(OCc4cc(F)ccc4F)cc2)CO3)c1C` (racemic) [Example 31, (3RS)-3-{4-[(2,5-difluorobenzyl)oxy]phenyl}-N-(3,4-dimethylisoxazol-5-yl)-1-oxa-8-azaspiro[4.5]decane-8-carboxamide] were, in that order, 3580 M⁻¹ s⁻¹ and 3220 M⁻¹ s⁻¹.

Values taken from US20110230493A1, “1-OXA-8-Azaspiro [4,5] Decabe-8-Carboxamide Compounds as FAAH Inhibitors” (Pfizer Inc., priority 2008, published 2011).
